# Where two headings read alike, the source gives them in different places. Numbered stars: 1 amine (or outer) side, 2 acyl side, 3 side chain; on linkers, the order of the positions; unused ones are H or OH. Bridge positions count the residues as written; N and C are the ends. Square brackets hold non-standard residues; d marks the D form. Peptide text beside a SMILES is read from it. X1 = C=C(CC(=O)[*:1])[*:2]; X2 = C=C(CC(=O)[*:2])[*:1]; Dap = NC[C@H](N)C(=O)O
# Columns and labels:
# [1] = test system: Candida albicans SC5314 (type strain); assay: microbe, parasite or virus in culture; format: cell-based; settings: read-out: Minimum inhibitory concentration (MIC)
# Experimental: Candida albicans SC5314 (type strain) was grown using RPMI 1640 media (with glutamine and phenol red, without bicarbonate). MIC assays were performed in accordance with the CLSI recommended protocol ([Clinical and Laboratory Standards Institute, 2006], Performance standards for antimicrobial susceptibility testing; sixteenth informational supplement. CLSI document M100-S16, Wayne, PA., 2006). See SI for further details. […]
# Antimicrobial susceptibility of Candida albicans SC5314 (type strain) was assessed by broth
# microdilution in accordance with the CLSI recommended protocols (Clinical and Laboratory Standards
# Institute, 2006, Performance standards for antimicrobial susceptibility testing; sixteenth informational
# supplement. CLSI document M100-S16, Wayne, PA., 2006). Briefly, a two-fold dilution series of the
# test compounds (from 64 μM to 0.25 μM, final) was prepared in triplicate in polypropylene 96-well
# plates, using RPMI 1640 media (with glutamine and phenol red, without bicarbonate). Inoculum was
# prepared from a 24 h old culture by picking 5 colonies (~1 mm in diameter) and resuspending these in
# 0.85% saline. Upon vortex mixing, the resulting suspension was diluted to provide a solution with
# absorbance equivalent to that of a 0.5 McFarland standard, approx. 0.1 OD at 530 nm (using 1 cm path
# length cuvette). This suspension was then diluted 1:50 and a further 1:20 with RPMI 1640 media to as
# to achieve a final inoculum of […] to 2.5 x 10^3 CFU/mL upon addition to the plate. The plates
# were incubated at 35 °C for 48 h, at which time the MIC was determined as the lowest test concentration
# at which no turbidity was observed across all three replicates. The assay was performed independently
# on three occasions and the reported MIC defined as the lowest concentration in which agreement was
# observed for all three biological replicates.
# [2] = test system: Staphylococcus aureus ATCC 29213; assay: microbe, parasite or virus in culture; format: cell-based; settings: for MIC: read-out: Minimum inhibitory concentration (MIC)
# Experimental: (§1) Staphylococcus aureus ATCC 29213, Pseudomonas aeruginosa (SVB-B9) (type strain) and Escherichia coli ATCC 25922 were grown in cation adjusted Mueller Hinton (MH) broth at 37°C with shaking (200 rpm). MIC assays were performed in accordance with the CLSI recommended protocols ([Clinical and Laboratory Standards Institute, 2006], Performance standards for antimicrobial susceptibility testing; sixteenth informational supplement. CLSI document M100-S16, Wayne, PA., 2006). See SI for further details.
# (§2) 4 Antimicrobial Testing of Thanatin* (5) and Analogues 8 – 11
# (§3) 4.1 Antibacterial Testing
# (§4) Staphylococcus aureus ATCC 29213, Pseudomonas aeruginosa (SVB-B9) (type strain) and
# (§5) Escherichia coli ATCC 25922 were grown in cation adjusted Mueller Hinton (CAMHB) broth at 37
# (§6) °C with shaking (200 rpm). MIC assays were performed in accordance with the CLSI recommended
# (§7) protocol (Clinical and Laboratory Standards Institute, 2006, Performance standards for antimicrobial
# (§8) susceptibility testing; sixteenth informational supplement. CLSI document M100-S16, Wayne, PA.,
# (§9) 2006). Briefly, a two-fold dilution series of the test compounds (from […], final) was
# (§10) prepared in triplicate in polypropylene 96-well plates in CAMHB. Fresh cultures of bacteria grown for
# (§11) ca. 6 h were diluted accordingly in fresh media before adding 50 µL of inoculum to each well of the
# (§12) MIC plate, to achieve a final volume of 100 µL with a uniform CFU/ml of ~5 x105 in each well. A
# (§13) growth control (untreated) and sterility control (non-inoculated) well was included for each test
# (§14) compound replicate. Plates were incubated at 37 °C with shaking for 18 h before determining the MIC.
# (§15) MIC values were determined as the lowest concentration at which no growth was observed consistently
# (§16) across all three biological replicates of the assay and within triplicates of each test compound. […]
# [3] = test system: Pseudomonas aeruginosa (SVB-B9) (type strain); format: cell-based; settings: 18 h
# Experimental: as §1, §2, §3, §4, §5, §6, §7, §8, §9, §10, §11, §12, §13, §14, §15, §16
# [4] = test system: Escherichia coli ATCC 25922; format: cell-based
# Experimental: as §1, §2, §3, §4, §5, §6, §7, §8, §9, §10, §11, §12, §13, §14, §15, §16
# P. aeruginosa = settings: ref Cirioni et al., 2011, cited from earlier work
# E. coli ATCC 25922 = settings: non-cation adjusted media, ref Wu et al. (2013); cited from earlier work
# Source text: (§17) TABLE 1 Minimum Inhibitory Concentrations (MICs) of thanatin* (5) and similar analogues against a variety of pathogens. | column: Minimum inhibitory concentration (µM) / Thanatin ^a ^, ^b (1); Minimum inhibitory concentration (µM) / S-Thanatin ^a (3) || TABLE 2 Minimum Inhibitory Concentrations (MICs) of thanatin* (5) and analogues (8–11) towards a variety of pathogens. | column: Minimum inhibitory concentration (µM) / 1 (Thanatin) ^a
# S. aureus ATCC 25923 = settings: non-cation adjusted media, ref Sinha et al. (2022); cited from earlier work
# Source text: as §17, with “Thanatin M21F ^b (4)” for “S-Thanatin ^a (3)”
# P. aeruginosa ATCC 27853 = settings: non-cation adjusted media, ref Sinha et al. (2022); cited from earlier work
# Source text: (§18) TABLE 1 Minimum Inhibitory Concentrations (MICs) of thanatin* (5) and similar analogues against a variety of pathogens. | column: Minimum inhibitory concentration (µM) / Thanatin ^a ^, ^b (1); Minimum inhibitory concentration (µM) / Thanatin M21F ^b (4)
# E. coli BL21 = settings: non-cation adjusted media, ref Sinha et al. (2022); cited from earlier work
# Source text: as §18
Compound,"MIC ([1]; SC5314, 48 h)",Minimum inhibitory concentration (MIC) ([3]; SVB-B9) (type strain),"Minimum inhibitory concentration (MIC) ([4]; ATCC 25922, 18 h)","MIC ([2]; ATCC 29213, 18 h)",other results
"C[C@@H]1[C@H](O)[C@@H](C)/C=C/C=C/C=C/C=C/C=C/C=C/C=C/[C@H](O[C@@H]2O[C@H](C)[C@@H](O)[C@H](N)[C@@H]2O)C[C@@H]2O[C@](O)(C[C@@H](O)C[C@@H](O)[C@H](O)CC[C@@H](O)C[C@@H](O)CC(=O)O[C@H]1C)C[C@H](O)[C@H]2C(=O)O [AMB, amphotericin B, reference compound]",,,,,"MIC ([1]; Candida albicans, C. albicans SC5314, RPMI 1640 media, 35 °C, 48 h, triplicate, three independent assays): 1 µM"
"CC1(C)S[C@@H]2[C@H](NC(=O)[C@H](N)c3ccc(O)cc3)C(=O)N2[C@H]1C(=O)O [AMX, amoxicillin, reference compound]",,,,,"MIC ([2]; Staphylococcus aureus, ATCC29213, S. aureus ATCC 29213, cation adjusted Mueller Hinton broth, 37 °C, 18 h, ~5 x10^5 CFU/mL, triplicate, three biological replicates): 2 µM"
"CC[C@H](C)[C@H](NC(=O)[C@@H](NC(=O)[C@@H]1CCCN1C(=O)[C@@H](NC(=O)[C@@H]1CCCN1C(=O)[C@H](CCCCN)NC(=O)[C@H](CCCCN)NC(=O)[C@H](CO)NC(=O)CN)C(C)C)[C@@H](C)CC)C(=O)N[C@@H](Cc1ccc(O)cc1)C(=O)N[C@H]1CSSC[C@@H](C(=O)N[C@@H](CCC(N)=O)C(=O)N[C@@H](CCCNC(=N)N)C(=O)N[C@@H](Cc2ccccc2)C(N)=O)NC(=O)[C@H](CCCCN)NC(=O)CNC(=O)[C@H](CO)NC(=O)[C@H](CCCNC(=N)N)NC(=O)[C@H](CCCNC(=N)N)NC(=O)[C@H](CC(N)=O)NC1=O [Thanatin* (5), thanatin*] (H-GSKKPVPIIYCNRRSGKCQRF-NH2; disulfide 11-18)",>64 µM,>64 µM,1 µM,>64 µM,"selectivity towards E. coli over P. aeruginosa ([4]; ratio of MICs, P. aeruginosa (SVB-B9) vs E. coli ATCC 25922, cation adjusted media): > 64 fold; Minimum inhibitory concentration (MIC) ([2]; S. aureus ATCC 29213, cation adjusted Mueller Hinton broth, 37 °C, 18 h, ~5 x10^5 CFU/mL, triplicate, three biological replicates): no activity"
C=C1CC(=O)NCCCC[C@H](NC(=O)[C@H](Cc2ccc(O)cc2)NC(=O)[C@@H](NC(=O)[C@@H](NC(=O)[C@@H]2CCCN2C(=O)[C@@H](NC(=O)[C@@H]2CCCN2C(=O)[C@H](CCCCN)NC(=O)[C@H](CCCCN)NC(=O)[C@H](CO)NC(=O)CN)C(C)C)[C@@H](C)CC)[C@@H](C)CC)C(=O)N[C@@H](CC(N)=O)C(=O)N[C@@H](CCCNC(=N)N)C(=O)N[C@@H](CCCNC(=N)N)C(=O)N[C@@H](CO)C(=O)NCC(=O)N[C@@H](CCCCN)C(=O)N[C@H](C(=O)N[C@@H](CCC(N)=O)C(=O)N[C@@H](CCCNC(=N)N)C(=O)N[C@@H](Cc2ccccc2)C(N)=O)CS1 [compound 8] (H-GSKKPVPIIYKNRRSGKCQRF-NH2; linker 11-18 via X1),>64 µM,>64 µM,4 µM,>64 µM,
C=C1CC(=O)NC[C@H](NC(=O)[C@H](Cc2ccc(O)cc2)NC(=O)[C@@H](NC(=O)[C@@H](NC(=O)[C@@H]2CCCN2C(=O)[C@@H](NC(=O)[C@@H]2CCCN2C(=O)[C@H](CCCCN)NC(=O)[C@H](CCCCN)NC(=O)[C@H](CO)NC(=O)CN)C(C)C)[C@@H](C)CC)[C@@H](C)CC)C(=O)N[C@@H](CC(N)=O)C(=O)N[C@@H](CCCNC(=N)N)C(=O)N[C@@H](CCCNC(=N)N)C(=O)N[C@@H](CO)C(=O)NCC(=O)N[C@@H](CCCCN)C(=O)N[C@H](C(=O)N[C@@H](CCC(N)=O)C(=O)N[C@@H](CCCNC(=N)N)C(=O)N[C@@H](Cc2ccccc2)C(N)=O)CS1 [compound 9] (H-GSKKPVPIIY[Dap]NRRSGKCQRF-NH2; linker 11-18 via X1),>64 µM,>64 µM,16 µM,>64 µM,reduction in potency compared to thanatin* (5) ([4]; E. coli ATCC 25922 MIC): 16 fold
C=C1CC(=O)NCCCC[C@@H](C(=O)N[C@@H](CCC(N)=O)C(=O)N[C@@H](CCCNC(=N)N)C(=O)N[C@@H](Cc2ccccc2)C(N)=O)NC(=O)[C@H](CCCCN)NC(=O)CNC(=O)[C@H](CO)NC(=O)[C@H](CCCNC(=N)N)NC(=O)[C@H](CCCNC(=N)N)NC(=O)[C@H](CC(N)=O)NC(=O)[C@@H](NC(=O)[C@H](Cc2ccc(O)cc2)NC(=O)[C@@H](NC(=O)[C@@H](NC(=O)[C@@H]2CCCN2C(=O)[C@@H](NC(=O)[C@@H]2CCCN2C(=O)[C@H](CCCCN)NC(=O)[C@H](CCCCN)NC(=O)[C@H](CO)NC(=O)CN)C(C)C)[C@@H](C)CC)[C@@H](C)CC)CS1 [compound 10] (H-GSKKPVPIIYCNRRSGKKQRF-NH2; linker 11-18 via X2),>64 µM,>64 µM,4 µM,>64 µM,
C=C1CC(=O)NC[C@@H](C(=O)N[C@@H](CCC(N)=O)C(=O)N[C@@H](CCCNC(=N)N)C(=O)N[C@@H](Cc2ccccc2)C(N)=O)NC(=O)[C@H](CCCCN)NC(=O)CNC(=O)[C@H](CO)NC(=O)[C@H](CCCNC(=N)N)NC(=O)[C@H](CCCNC(=N)N)NC(=O)[C@H](CC(N)=O)NC(=O)[C@@H](NC(=O)[C@H](Cc2ccc(O)cc2)NC(=O)[C@@H](NC(=O)[C@@H](NC(=O)[C@@H]2CCCN2C(=O)[C@@H](NC(=O)[C@@H]2CCCN2C(=O)[C@H](CCCCN)NC(=O)[C@H](CCCCN)NC(=O)[C@H](CO)NC(=O)CN)C(C)C)[C@@H](C)CC)[C@@H](C)CC)CS1 [compound 11] (H-GSKKPVPIIYCNRRSGK[Dap]QRF-NH2; linker 11-18 via X2),>64 µM,>64 µM,8 µM,>64 µM,
S-thanatin [S-Thanatin (3)],,,,,FICI (P. aeruginosa; S-thanatin with colistin (polymyxin E)): 0.46; MIC (P. aeruginosa): 16 µg/mL; Minimum inhibitory concentration (MIC) (E. coli ATCC 25922): 1.6 µM
"polymyxin B [PMB, reference compound]",,,,,"Minimum inhibitory concentration (MIC) ([3]; P. aeruginosa (SVB-B9) type strain, cation adjusted Mueller Hinton broth, 37 °C, ~5 x10^5 CFU/mL, triplicate, three biological replicates): 0.125 µM; Minimum inhibitory concentration (MIC) ([4]; E. coli ATCC 25922, cation adjusted Mueller Hinton broth, 37 °C, 18 h, ~5 x10^5 CFU/mL, triplicate, three biological replicates): 0.125 µM"
thanatin M21F [Thanatin M21F (4)],,,,,Minimum inhibitory concentration (MIC) (S. aureus ATCC 25923): 0.5 µM; Minimum inhibitory concentration (MIC) (P. aeruginosa ATCC 27853): 0.5 µM; Minimum inhibitory concentration (MIC) (E. coli BL21): 0.5 µM

# Reference: publication PMC11573584, “Thanatin and vinyl sulfide analogues as narrow spectrum antimicrobial peptides that synergise with polymyxin B” (Frontiers in Pharmacology, 2024)
